From ChEMBL document CHEMBL1201862, “PubChem BioAssay data set” (2004) come the findings set out here.

Molecules are shown by their SMILES. Calls of active or inactive are those of the source.

The target in assay [1] is T1, Beta-galactosidase (Escherichia coli, UniProt Q8VNN2). The class given is functional.
Assay [2] addresses T1, Beta-galactosidase. Briefly: beta-galactosidase enzyme inhibitors and activators, dose response, artefact control for CCR6 antagonist project, biochemical, E. coli enzyme, set 3 (AID 504712). Type of assay: functional.
Assay [3] concerns Streptococcus sp. 'group A'. Nature of the assay: growth inhibition of control SK(-) GAS strain, dose response, counter-screen for streptokinase expression inhibitor project, luminescence, kanamycin, BacTiterGlo, confirmation (AID 1900). The class given is functional, organism-based. On the technique in general: The purpose of a counterscreen is to sort out artefacts and off-target activity.

Another assay deals with Streptococcus. Nature of the assay: Group A Streptococcus viability loss, dose response, counter-screen for streptokinase expression inhibitor project, luminescence, BacTiterGlo (AID 1915).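 Note: potency for reduction of bacterial viability or growth.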 The class given is functional, organism-based.
Assay [4] addresses T2, Kappa-type opioid receptor (Homo sapiens, UniProt P41145). Type of assay: functional.
Assay [5] concerns the target T2, Kappa-type opioid receptor. The class given is functional. This is another data set of the same source.
The target in assay [6] is T3, Calpain-2 catalytic subunit (Sus scrofa, UniProt P43367).
T3 sequence (P43367 whole entry): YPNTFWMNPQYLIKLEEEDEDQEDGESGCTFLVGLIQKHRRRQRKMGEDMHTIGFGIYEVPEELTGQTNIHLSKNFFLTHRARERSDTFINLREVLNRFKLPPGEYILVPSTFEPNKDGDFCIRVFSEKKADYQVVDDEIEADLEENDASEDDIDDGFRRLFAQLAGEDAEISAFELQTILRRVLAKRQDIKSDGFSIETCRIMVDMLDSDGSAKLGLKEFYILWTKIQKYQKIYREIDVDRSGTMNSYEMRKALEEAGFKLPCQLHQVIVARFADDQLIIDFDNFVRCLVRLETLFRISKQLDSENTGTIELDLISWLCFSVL
Nature of the assay: pig calpain II inhibitor potency, dose response, biochemical, fluorogenic peptide substrate (AID 1420). The class given is functional.

Another assay deals with T4, Coagulation factor XII (Homo sapiens, UniProt P00748).
T4 sequence (P00748 whole entry): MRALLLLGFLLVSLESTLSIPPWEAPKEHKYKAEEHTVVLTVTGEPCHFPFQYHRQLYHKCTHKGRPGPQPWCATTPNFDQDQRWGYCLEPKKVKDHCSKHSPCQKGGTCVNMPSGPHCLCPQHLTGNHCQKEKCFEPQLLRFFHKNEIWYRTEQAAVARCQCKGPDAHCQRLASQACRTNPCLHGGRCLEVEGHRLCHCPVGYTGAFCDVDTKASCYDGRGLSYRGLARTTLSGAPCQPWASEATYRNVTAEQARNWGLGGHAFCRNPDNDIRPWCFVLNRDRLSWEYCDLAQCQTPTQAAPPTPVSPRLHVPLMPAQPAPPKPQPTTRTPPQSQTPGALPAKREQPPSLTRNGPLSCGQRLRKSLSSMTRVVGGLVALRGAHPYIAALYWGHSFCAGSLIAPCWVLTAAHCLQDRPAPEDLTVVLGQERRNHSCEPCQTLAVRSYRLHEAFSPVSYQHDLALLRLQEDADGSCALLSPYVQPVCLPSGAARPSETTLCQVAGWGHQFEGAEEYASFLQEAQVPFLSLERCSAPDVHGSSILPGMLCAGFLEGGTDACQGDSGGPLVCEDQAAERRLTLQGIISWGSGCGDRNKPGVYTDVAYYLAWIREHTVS
Type of assay: functional.

Assay [7] can be described thus: Counterscreen for AddAB inhibitors: absorbance-based bacterial cell-based high throughput dose response assay for inhibitors of bacterial viability. [Related pubchem assays (depositor defined):AID435030, AID449728, AID449731, AID488942, AID488955, AID488956]. The class given is functional.
The test system of a further assay is HEK293. Briefly: inhibitors of LMP1-driven NF-kB reporter, dose response, cell-based, HEK293, luciferase, cherry-pick (AID 588343). Type of assay: functional. The note with it: Homo sapiens.
A further assay deals with T5, Exodeoxyribonuclease V (Escherichia coli (strain K12), UniProt P04993+P07648+P08394).
T5 sequence (P04993 whole entry): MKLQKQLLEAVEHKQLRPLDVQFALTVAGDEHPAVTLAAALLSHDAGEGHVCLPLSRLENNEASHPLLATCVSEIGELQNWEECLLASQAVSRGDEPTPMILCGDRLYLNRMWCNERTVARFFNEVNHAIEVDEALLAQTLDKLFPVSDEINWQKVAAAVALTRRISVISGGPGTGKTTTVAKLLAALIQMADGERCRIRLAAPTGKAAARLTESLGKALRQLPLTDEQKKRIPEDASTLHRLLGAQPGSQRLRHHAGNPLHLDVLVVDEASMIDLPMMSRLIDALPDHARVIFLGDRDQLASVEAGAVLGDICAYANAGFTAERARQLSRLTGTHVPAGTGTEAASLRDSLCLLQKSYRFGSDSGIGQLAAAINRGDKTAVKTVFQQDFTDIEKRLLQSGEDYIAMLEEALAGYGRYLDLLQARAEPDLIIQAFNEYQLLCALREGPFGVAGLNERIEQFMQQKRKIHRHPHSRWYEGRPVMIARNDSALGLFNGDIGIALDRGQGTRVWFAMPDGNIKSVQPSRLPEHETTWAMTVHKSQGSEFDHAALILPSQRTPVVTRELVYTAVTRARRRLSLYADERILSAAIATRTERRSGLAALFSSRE
T5 sequence (P07648 whole entry): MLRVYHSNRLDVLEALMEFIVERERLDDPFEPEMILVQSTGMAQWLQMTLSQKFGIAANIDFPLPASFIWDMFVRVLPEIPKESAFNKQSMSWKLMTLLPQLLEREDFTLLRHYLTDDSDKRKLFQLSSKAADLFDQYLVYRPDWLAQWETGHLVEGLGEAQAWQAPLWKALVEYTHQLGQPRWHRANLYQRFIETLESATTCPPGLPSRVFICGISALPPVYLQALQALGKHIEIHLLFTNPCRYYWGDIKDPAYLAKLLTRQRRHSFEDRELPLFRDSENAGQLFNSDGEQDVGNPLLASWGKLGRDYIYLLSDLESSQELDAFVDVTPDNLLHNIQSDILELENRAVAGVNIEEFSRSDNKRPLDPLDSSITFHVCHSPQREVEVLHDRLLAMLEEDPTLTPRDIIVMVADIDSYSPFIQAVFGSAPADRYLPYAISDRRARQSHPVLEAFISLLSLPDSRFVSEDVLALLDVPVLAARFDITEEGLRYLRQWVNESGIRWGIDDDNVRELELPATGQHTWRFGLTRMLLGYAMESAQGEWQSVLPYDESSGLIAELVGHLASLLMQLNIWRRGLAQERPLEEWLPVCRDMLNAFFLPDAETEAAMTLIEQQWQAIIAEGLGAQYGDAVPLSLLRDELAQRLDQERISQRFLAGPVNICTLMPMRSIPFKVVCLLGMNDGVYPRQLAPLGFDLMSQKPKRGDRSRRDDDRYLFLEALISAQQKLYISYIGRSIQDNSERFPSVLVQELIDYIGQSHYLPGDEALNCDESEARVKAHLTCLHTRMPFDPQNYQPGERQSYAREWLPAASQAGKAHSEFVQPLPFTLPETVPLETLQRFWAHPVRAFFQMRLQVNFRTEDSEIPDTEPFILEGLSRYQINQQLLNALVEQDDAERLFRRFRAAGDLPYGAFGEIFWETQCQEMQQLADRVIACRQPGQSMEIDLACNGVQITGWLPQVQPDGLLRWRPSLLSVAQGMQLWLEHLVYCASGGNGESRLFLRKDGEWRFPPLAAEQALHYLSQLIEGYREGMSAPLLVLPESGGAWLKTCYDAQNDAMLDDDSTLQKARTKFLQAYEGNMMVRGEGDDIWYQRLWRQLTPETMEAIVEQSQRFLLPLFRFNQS
T5 sequence (P08394 whole entry): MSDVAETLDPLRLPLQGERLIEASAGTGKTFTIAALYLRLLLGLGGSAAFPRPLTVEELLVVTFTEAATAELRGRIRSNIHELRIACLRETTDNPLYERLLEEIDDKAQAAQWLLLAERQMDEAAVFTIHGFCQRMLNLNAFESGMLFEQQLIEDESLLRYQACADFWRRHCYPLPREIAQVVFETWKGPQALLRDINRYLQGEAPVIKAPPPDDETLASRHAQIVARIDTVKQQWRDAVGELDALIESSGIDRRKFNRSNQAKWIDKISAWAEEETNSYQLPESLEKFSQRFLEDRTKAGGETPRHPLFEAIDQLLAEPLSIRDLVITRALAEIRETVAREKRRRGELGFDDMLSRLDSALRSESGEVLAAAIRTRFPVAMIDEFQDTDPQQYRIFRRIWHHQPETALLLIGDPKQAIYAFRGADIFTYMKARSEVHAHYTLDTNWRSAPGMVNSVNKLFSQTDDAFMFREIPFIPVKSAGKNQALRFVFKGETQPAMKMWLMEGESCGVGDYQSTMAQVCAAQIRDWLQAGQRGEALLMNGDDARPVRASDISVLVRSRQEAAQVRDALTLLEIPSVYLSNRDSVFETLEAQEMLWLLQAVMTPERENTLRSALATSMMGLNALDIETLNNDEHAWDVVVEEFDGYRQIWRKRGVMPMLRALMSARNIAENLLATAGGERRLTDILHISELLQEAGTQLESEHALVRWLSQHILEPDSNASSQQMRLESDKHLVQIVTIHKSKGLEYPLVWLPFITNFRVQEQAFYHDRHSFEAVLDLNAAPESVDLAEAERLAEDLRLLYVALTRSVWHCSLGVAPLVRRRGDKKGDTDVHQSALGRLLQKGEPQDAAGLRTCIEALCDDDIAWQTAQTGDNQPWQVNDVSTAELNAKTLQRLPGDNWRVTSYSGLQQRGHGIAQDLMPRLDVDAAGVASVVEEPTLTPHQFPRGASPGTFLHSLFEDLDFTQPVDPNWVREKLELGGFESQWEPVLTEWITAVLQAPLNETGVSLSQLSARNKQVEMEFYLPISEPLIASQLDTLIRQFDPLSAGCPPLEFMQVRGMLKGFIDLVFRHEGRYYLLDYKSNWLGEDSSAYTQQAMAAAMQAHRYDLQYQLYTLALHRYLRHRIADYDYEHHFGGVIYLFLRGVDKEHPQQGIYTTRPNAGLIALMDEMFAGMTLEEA
Nature of the assay: E. coli RecBCD inhibitors, dose response, counter-screen for AddAB inhibitor project, absorbance, V66 E. coli, mutant T4 phage (AID 492957). Type of assay: functional, cell-based, Escherichia coli str. K-12 substr. MG1655.

Another assay deals with Cytochrome P450 2D6 (Homo sapiens, UniProt P10635).
Chain of Cytochrome P450 2D6 (P10635 whole entry): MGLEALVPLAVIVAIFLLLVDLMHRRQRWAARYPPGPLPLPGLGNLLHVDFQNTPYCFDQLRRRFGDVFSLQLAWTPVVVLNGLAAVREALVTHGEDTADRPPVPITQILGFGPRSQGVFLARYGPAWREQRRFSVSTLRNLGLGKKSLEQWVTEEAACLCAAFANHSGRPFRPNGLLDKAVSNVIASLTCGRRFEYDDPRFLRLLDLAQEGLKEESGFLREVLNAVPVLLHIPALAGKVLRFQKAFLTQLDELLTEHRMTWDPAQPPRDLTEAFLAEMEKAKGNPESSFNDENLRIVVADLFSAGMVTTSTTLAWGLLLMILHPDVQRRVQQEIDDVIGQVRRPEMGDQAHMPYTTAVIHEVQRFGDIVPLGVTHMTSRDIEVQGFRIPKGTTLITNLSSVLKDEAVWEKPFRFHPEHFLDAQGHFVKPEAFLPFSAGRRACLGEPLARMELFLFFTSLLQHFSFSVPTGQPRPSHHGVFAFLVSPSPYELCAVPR

T2 sequence (P41145 whole entry): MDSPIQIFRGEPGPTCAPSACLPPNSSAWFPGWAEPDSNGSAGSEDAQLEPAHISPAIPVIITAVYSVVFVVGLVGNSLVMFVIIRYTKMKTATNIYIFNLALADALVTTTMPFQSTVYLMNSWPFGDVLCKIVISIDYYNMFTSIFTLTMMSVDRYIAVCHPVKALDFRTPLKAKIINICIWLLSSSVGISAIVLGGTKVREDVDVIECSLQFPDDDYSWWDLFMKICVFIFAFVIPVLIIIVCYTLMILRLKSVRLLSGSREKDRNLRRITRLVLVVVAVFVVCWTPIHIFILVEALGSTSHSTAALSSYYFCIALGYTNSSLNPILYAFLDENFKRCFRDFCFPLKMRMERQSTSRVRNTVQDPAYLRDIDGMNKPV
T1 sequence (Q8VNN2 whole entry): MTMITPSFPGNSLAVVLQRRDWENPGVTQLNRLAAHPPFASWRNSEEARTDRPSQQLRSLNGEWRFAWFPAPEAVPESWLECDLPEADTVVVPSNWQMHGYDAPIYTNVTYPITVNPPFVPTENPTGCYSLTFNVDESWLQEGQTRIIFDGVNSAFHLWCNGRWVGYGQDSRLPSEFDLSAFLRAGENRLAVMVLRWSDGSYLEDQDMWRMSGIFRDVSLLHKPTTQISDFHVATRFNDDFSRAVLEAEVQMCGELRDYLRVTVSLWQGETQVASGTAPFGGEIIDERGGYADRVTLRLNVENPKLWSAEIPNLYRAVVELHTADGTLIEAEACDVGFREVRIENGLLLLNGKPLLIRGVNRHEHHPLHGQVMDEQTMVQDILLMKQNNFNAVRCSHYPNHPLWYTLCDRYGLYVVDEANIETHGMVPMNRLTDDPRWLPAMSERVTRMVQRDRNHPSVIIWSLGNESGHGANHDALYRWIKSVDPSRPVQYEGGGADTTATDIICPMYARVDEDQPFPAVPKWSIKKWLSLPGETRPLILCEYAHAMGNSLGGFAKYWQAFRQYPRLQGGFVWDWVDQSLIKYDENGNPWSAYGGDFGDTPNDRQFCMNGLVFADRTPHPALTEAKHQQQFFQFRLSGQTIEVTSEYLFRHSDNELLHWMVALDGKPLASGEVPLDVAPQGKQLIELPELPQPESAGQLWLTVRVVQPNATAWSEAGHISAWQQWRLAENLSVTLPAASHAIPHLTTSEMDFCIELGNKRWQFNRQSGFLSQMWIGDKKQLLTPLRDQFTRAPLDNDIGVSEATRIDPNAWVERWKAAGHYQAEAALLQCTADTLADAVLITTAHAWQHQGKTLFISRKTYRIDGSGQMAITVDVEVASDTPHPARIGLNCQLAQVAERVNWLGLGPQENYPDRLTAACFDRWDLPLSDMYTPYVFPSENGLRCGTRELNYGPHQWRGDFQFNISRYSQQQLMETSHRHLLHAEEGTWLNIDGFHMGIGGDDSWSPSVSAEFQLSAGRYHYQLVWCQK

What is called EC50 is the concentration that produces a half-maximal response. A word on the IC50: it is the point on the concentration scale where inhibition reaches its midpoint. For the compound `N=C1SCC(=O)N1c1ncc(Cc2ccc(F)cc2)s1`, the EC50 on Beta-galactosidase [1] is > 31.5 µM (inactive); in assay [3], 0.949 µM (active); in the assay with Streptococcus, 2.21 µM (active). For the same compound, the IC50 at Beta-galactosidase [2] was > 66.6 µM (inactive); in assay [4] it was 7.35 µM (active); in assay [5], more than 32 µM.

Turning to `Cc1ccsc1C(=O)NCCC(c1ccccc1)c1ccccc1`, the IC50 in assay [6] was 0.719 µM (not active); at Coagulation factor XII, > 50 µM (inactive).

Usually AC50 stands for the concentration giving half of the maximal activity seen. In the case of `NC(=S)N/N=C/c1ncc(C(F)(F)F)cc1Cl`, the EC50 at Beta-galactosidase [1] was > 31.5 µM (inactive). Further, the IC50 in [7] is > 119 µM (inactive); in assay [4], 22.2 µM (inactive); on Exodeoxyribonuclease V, > 119 µM (inactive); in assay [5], more than 32 µM. For the same compound, the AC50 with HEK293 was 10.2 µM (active).

As for `Cc1cc(C)c(C#N)c(SCc2ccc([N+](=O)[O-])cc2)n1`, the IC50 at Coagulation factor XII was > 50 µM (inactive).

For `CN(C)S(=O)(=O)Oc1ccsc1C(=O)Nc1cccc(Cl)c1`, the concentration at half-maximal activity (AC50) at Cytochrome P450 2D6 was 25.1 µM (inconclusive). Moreover, the IC50 at Coagulation factor XII was > 50 µM (inactive).

As to `COc1ccc(C2C(C(=O)Nc3ccccc3OC)=C(C)Nc3ncnn32)cc1` (stereo not drawn), the IC50 at Coagulation factor XII was > 50 µM (inactive).
